Laboratory results taken from patent publication US20260200928A1, “THERAPEUTIC COMPOUNDS” (Sanofi, priority 2022, published 2026).
Where a name gives a salt, the structure may show the parent alone.

Biological target: T1, human IL-17A (Homo sapiens, UniProt Q16552)
T1 construct: purchased R&D Systems 7955-IL/CF
T1 sequence (Q16552 24-155): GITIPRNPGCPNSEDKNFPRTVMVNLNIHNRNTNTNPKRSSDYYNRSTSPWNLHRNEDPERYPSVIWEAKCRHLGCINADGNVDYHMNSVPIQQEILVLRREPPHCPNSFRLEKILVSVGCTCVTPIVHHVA
Assay: IL-17A AlphaLISA competition assay (block of IL-17A binding to its receptor IL-17RA)
Settings: mean IC50 (n≥2), block of IL-17A binding to IL-17RA
In short: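 Human recombinant IL-17A (7.5 nM stock) pre-incubated 30 min at RT with compound, then IL-17RA/Fc (5 nM stock) added for 90 min; AlphaLISA read with anti-Fc acceptor beads, biotinylated anti-IL-17A antibody (5 nM) and streptavidin donor beads (3 h, dark). IC50 from 4-parameter logistic fit, normalised to DMSO and 4 μM reference inhibitor; n≥2.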

Structure (SMILES)	IC50 [nM]
NCC1(c2nocc2C(=O)N[C@H](C(=O)Nc2cc(CN3C[C@@H](C(F)(F)F)NC3=O)ccn2)C2CCC(F)(F)CC2)CC1 [Example 22, 3-(1-(Aminomethyl)cyclopropyl)-N—((S)-1-(4,4-difluorocyclohexyl)-2-oxo-2-((4-(((S)-2-oxo-4-(trifluoromethyl)imidazolidin-1-yl)methyl)pyridin-2-yl)amino)ethyl)isoxazole-4-carboxamide HCl salt]	9230
CN1C(=O)N(Cc2ccnc(NC(=O)[C@@H](NC(=O)OC(C)(C)C)[C@H]3CC[C@H](C)CC3)c2)CC12CCC2 [Example 23, Tert-butyl ((S)-2-((4-((5-methyl-6-oxo-5,7-diazaspiro[3.4]octan-7-yl)methyl)pyridin-2-yl)amino)-1-((1r,4S)-4-methylcyclohexyl)-2-oxoethyl)carbamate]	6950
CC(C)(C)OC(=O)N[C@H](C(=O)Nc1cc(COC(=O)NCC(F)(F)F)ccn1)[C@H]1CC[C@H](C)CC1 [Example 26, Tert-butyl ((S)-1-((1r,4S)-4-methylcyclohexyl)-2-oxo-2-((4-((((2,2,2-trifluoroethyl)carbamoyl)oxy)methyl)pyridin-2-yl)amino)ethyl)carbamate]	10400
CC(C)(C)OC(=O)N[C@H](C(=O)Nc1cc(CN2C(=O)NC(C)(C)C2=O)ccn1)C1CCC(F)(F)CC1 [Example 27, Tert-butyl (S)-(1-(4,4-difluorocyclohexyl)-2-((4-((4,4-dimethyl-2,5-dioxoimidazolidin-1-yl)methyl)pyridin-2-yl)amino)-2-oxoethyl)carbamate]	14900
CC(C)(C)OC(=O)N[C@H](C(=O)Nc1cc(CN2C(=O)CNC2=O)ccn1)C1CCC(F)(F)CC1 [Example 28, Tert-butyl (S)-(1-(4,4-difluorocyclohexyl)-2-((4-((2,5-dioxoimidazolidin-1-yl)methyl)pyridin-2-yl)amino)-2-oxoethyl)carbamate]	8400
Cn1nccc1C(=O)N[C@H](C(=O)Nc1cc(CC(=O)NCCC(F)(F)F)ccn1)C(C1CC1)C1CC1 [Example 31, (S)—N-(1,1-dicyclopropyl-3-oxo-3-((4-(2-oxo-2-((3,3,3-trifluoro-propyl)amino)ethyl)pyridin-2-yl)amino)propan-2-yl)-1-methyl-1H-pyrazole-5-carboxamide]	5060
Cn1nccc1C(=O)N[C@H](C(=O)Nc1cc(CNC(=O)CCC(F)(F)F)ccn1)C(C1CC1)C1CC1 [Example 32, (S)—N-(1,1-dicyclopropyl-3-oxo-3-((4-((4,4,4-trifluorobutanamido)-methyl)pyridin-2-yl)amino)propan-2-yl)-1-methyl-1H-pyrazole-5-carboxamide]	5600
CC(C)n1nccc1C(=O)NC(C(=O)Nc1cc(Cc2cccc(=O)n2C)ccn1)C1CCC(F)(F)CC1 (stereo not shown) [Example 35, N-(1-(4,4-difluorocyclohexyl)-2-((4-((1-methyl-6-oxo-1,6-dihydropyridin-2-yl)methyl)pyridin-2-yl)amino)-2-oxoethyl)-1-isopropyl-1H-pyrazole-5-carboxamide]	23500
CCn1nccc1C(=O)NC(C(=O)Nc1cc(Cc2cccc(=O)n2C)ccn1)C1CCC(F)(F)CC1 (stereo not shown) [Example 36, N-(1-(4,4-difluorocyclohexyl)-2-((4-((1-methyl-6-oxo-1,6-dihydro-pyridin-2-yl)methyl)pyridin-2-yl)amino)-2-oxoethyl)-1-ethyl-1H-pyrazole-5-carboxamide]	12000
Cn1nccc1C(=O)NC(C(=O)Nc1cc(Cc2cccc(=O)n2C)ccn1)C1CCC(F)(F)CC1 (stereo not shown) [Example 37, N-(1-(4,4-difluorocyclohexyl)-2-((4-((1-methyl-6-oxo-1,6-dihydropyridin-2-yl)methyl)pyridin-2-yl)amino)-2-oxoethyl)-1-methyl-1H-pyrazole-5-carboxamide]	25400
CC(C)(C)OC(=O)N[C@H](C(=O)Nc1cc(COC(=O)NCC(F)(F)F)ccn1)C1CCC(F)(F)CC1 [Example 45, Tert-butyl (S)-(1-(4,4-difluorocyclohexyl)-2-oxo-2-((4-((((2,2,2-trifluoroethyl)carbamoyl)oxy)methyl)pyridin-2-yl)amino)ethyl)carbamate]	10300

Compounds with a lower IC50, results first:

IC50 [nM]	Structure (SMILES)
843	CC(C)(C)OC(=O)NCC1(c2nocc2C(=O)N[C@H](C(=O)Nc2cc(CN3C[C@@H](C(F)(F)F)NC3=O)ccn2)C2CCC(F)(F)CC2)CC1 [Example 19, Tert-butyl ((1-(4-(((S)-1-(4,4-difluorocyclohexyl)-2-oxo-2-((4-(((S)-2-oxo-4-(trifluoromethyl)imidazolidin-1-yl)methyl)pyridin-2-yl)amino)ethyl)-carbamoyl)isoxazol-3-yl)cyclopropyl)methyl)carbamate]
183	O=C(N[C@H](C(=O)Nc1cc(CN2C[C@@H](C(F)(F)F)NC2=O)ccn1)C1CCC(F)(F)CC1)c1conc1C1CC1 [Example 20, 3-cyclopropyl-N-((S)-1-(4,4-difluorocyclohexyl)-2-oxo-2-((4-(((S)-2-oxo-4-(trifluoromethyl)-imidazolidin-1-yl)methyl)-pyridin-2-yl)amino)ethyl)-isoxazole-4-carboxamide]
138	CC(C)c1nocc1C(=O)N[C@H](C(=O)Nc1cc(CN2C[C@@H](C(F)(F)F)NC2=O)ccn1)C1CCC(F)(F)CC1 [Example 21, N-((S)-1-(4,4-difluorocyclohexyl)-2-oxo-2-((4-(((S)-2-oxo-4-(trifluoro-methyl)imidazolidin-1-yl)methyl)pyridin-2-yl)amino)ethyl)-3-isopropyl-isoxazole-4-carboxamide]
1050	CC1(C)CN(Cc2ccnc(NC(=O)[C@@H](NC(=O)OC(C)(C)C)[C@H]3CC[C@H](C)CC3)c2)C(=O)N1 [Example 24, Tert-butyl ((S)-2-((4-((4,4-dimethyl-2-oxoimidazolidin-1-yl)methyl)pyridin-2-yl)amino)-1-((1r,4S)-4-methylcyclohexyl)-2-oxoethyl)carbamate]
105	CC1(C)CN(Cc2ccnc(NC(=O)[C@@H](NC(=O)c3nonc3C3CC3)[C@H]3CC[C@H](C)CC3)c2)C(=O)N1 [Example 25, 4-Cyclopropyl-N—((S)-2-((4-((4,4-dimethyl-2-oxoimidazolidin-1-yl)methyl)pyridin-2-yl)amino)-1-((1r,4S)-4-methylcyclohexyl)-2-oxoethyl)-1,2,5-oxadiazole-3-carboxamide]
428	C[C@@H]1CNC(=O)N1Cc1ccnc(NC(=O)[C@@H](NC(=O)OC(C)(C)C)[C@H]2CC[C@H](C)CC2)c1 [Example 29, Tert-butyl ((S)-2-((4-(((R)-5-methyl-2-oxoimidazolidin-1-yl)methyl)pyridin-2-yl)amino)-1-((1r,4S)-4-methylcyclohexyl)-2-oxoethyl)carbamate]
479	C[C@@H]1CN(Cc2ccnc(NC(=O)[C@@H](NC(=O)OC(C)(C)C)[C@H]3CC[C@H](C)CC3)c2)C(=O)N1 [Example 30]
1010	C[C@@H]1CN(Cc2ccnc(NC(=O)[C@@H](NC(=O)c3ccnn3C)C(C3CC3)C3CC3)c2)C(=O)N1 [Example 33, N—((S)-1,1-dicyclopropyl-3-((4-(((R)-4-methyl-2-oxoimidazolidin-1-yl)methyl)pyridin-2-yl)amino)-3-oxopropan-2-yl)-1-methyl-1H-pyrazole-5-carboxamide]
1470	C[C@@H]1CN(Cc2ccnc(NC(=O)[C@@H](NC(=O)c3ccnn3C3CC3)C(C3CC3)C3CC3)c2)C(=O)N1 [Example 34, 1-cyclopropyl-N—((S)-1,1-dicyclopropyl-3-((4-(((R)-4-methyl-2-oxoimidazolidin-1-yl)methyl)pyridin-2-yl)amino)-3-oxopropan-2-yl)-1H-pyrazole-5-carboxamide]
612	O=C(CCC(F)(F)F)NC(c1ccnc(NC(=O)C(NC(=O)c2nonc2C2CC2)C2CCC(F)(F)CC2)c1)C1CC1 (stereo not shown) [Example 46, 4-cyclopropyl-N-(2-((4-(cyclopropyl(4,4,4-trifluorobutan-amido)methyl)pyridin-2-yl)amino)-1-(4,4-difluorocyclohexyl)-2-oxoethyl)-1,2,5-oxadiazole-3-carboxamide]
630	Cn1nccc1C(=O)NC(C(=O)Nc1cc(C(NC(=O)CCC(F)(F)F)C2CC2)ccn1)C1CCC(F)(F)CC1 (stereo not shown) [Example 47, N-(2-((4-(cyclopropyl(4,4,4-trifluorobutanamido)methyl)pyridin-2-yl)amino)-1-(4,4-difluorocyclohexyl)-2-oxoethyl)-1-methyl-1H-pyrazole-5-carboxamide]
229	CC(C)n1nccc1C(=O)NC(C(=O)Nc1cc(C(NC(=O)CCC(F)(F)F)C2CC2)ccn1)C1CCC(F)(F)CC1 (stereo not shown) [Example 48, N-(2-((4-(cyclopropyl(4,4,4-trifluorobutanamido)methyl)pyridin-2-yl)amino)-1-(4,4-difluorocyclohexyl)-2-oxoethyl)-1-isopropyl-1H-pyrazole-5-carboxamide]
776	CCc1nocc1C(=O)NC(C(=O)Nc1cc(C(NC(=O)CCC(F)(F)F)C2CC2)ccn1)C1CCC(F)(F)CC1 (stereo not shown) [Example 49, N-(2-((4-(cyclopropyl(4,4,4-trifluorobutanamido)methyl)pyridin-2-yl)amino)-1-(4,4-difluorocyclohexyl)-2-oxoethyl)-3-ethylisoxazole-4-carboxamide]
2950	CC(C)(C)OC(=O)N[C@H](C(=O)Nc1cc(CN2C[C@@H](C(F)(F)F)NC2=O)c(F)cn1)[C@H]1CC[C@H](C)CC1 [Example 50, tert-butyl ((S)-2-((5-fluoro-4-(((S)-2-oxo-4-(trifluoromethyl)imidazolidin-1-yl)methyl)pyridin-2-yl)amino)-1-((1r,4S)-4-methylcyclohexyl)-2-oxoethyl)carbamate]
